Measured values taken from article PMC9007462 (Journal of Medicinal Chemistry, 2022).

Legend:
[1] = target: T1, Human ALDH1A1 (Homo sapiens, UniProt P00352); test: ALDH1A1 inhibition, IC50 determination; type: biochemical
T1 construct: made in house
T1 sequence (P00352 1-501): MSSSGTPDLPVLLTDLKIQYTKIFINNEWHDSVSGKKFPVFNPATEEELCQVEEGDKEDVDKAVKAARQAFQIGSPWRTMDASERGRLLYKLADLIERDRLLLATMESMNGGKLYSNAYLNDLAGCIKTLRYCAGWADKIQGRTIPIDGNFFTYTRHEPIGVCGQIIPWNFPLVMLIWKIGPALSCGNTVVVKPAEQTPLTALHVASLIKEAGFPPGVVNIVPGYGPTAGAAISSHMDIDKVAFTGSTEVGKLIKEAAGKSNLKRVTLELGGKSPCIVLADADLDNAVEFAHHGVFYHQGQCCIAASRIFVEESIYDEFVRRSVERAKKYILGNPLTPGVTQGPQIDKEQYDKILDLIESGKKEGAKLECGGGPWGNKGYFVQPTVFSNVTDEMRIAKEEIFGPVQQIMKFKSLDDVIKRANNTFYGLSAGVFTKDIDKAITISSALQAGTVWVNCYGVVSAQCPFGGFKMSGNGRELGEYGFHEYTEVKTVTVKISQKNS
Protocol: (§1) Human ALDH1A1, ALDH1A3, and ALDH3A1 were cloned and recombinantly expressed from the pET-30 Xa/LIC vector. Protein purification was achieved by affinity chromatography on a nickel-charged chelating Sepharose Fast Flow 5-mL column (His Trap column, Cytiva), which specifically binds the protein due to its N-terminal (His)6 tag, using an ÄKTA FPLC system (Cytiva), as previously described.[55] Enzymes including the His tag were stored at −80 °C in 20 mM Tris/HCl and 0.5 M NaCl, pH 8.0, until use. Reaction buffers were as follows: ALDH1A1 was assayed in 50 mM HEPES, 0.5 mM EDTA, and 0.5 mM DTT, pH 8.0; ALDH1A3 was assayed in 50 mM HEPES, 30 mM MgCl2, and 5 mM DTT, pH 8.0; and ALDH3A1 was assayed in 50 mM Tris–HCl and 5 mM DTT, pH 8.0. Activity under standard conditions was measured fluorimetrically at 25 °C using a Cary Eclipse (Varian) fluorimeter to follow the purification procedure and to check the enzyme concentration before each kinetic experiment. The fluorescence of NADH was characterized at 460 nm with excitation at 340 nm, and 5 μM NAD(P)H was added as an internal standard to obtain the absolute reaction rates.[55] Standard activity was measured at saturating concentrations of substrate using 30 μM hexanal (ALDH1A1), 250 μM hexanal (ALDH1A3), or 250 μM 4-NBA (ALDH3A1). NAD^+ was 500 μM for ALDH1A1 and ALDH1A3, and NADP^+ was 1 mM for ALDH3A1.
In order to determine the IC50 values, reaction rates were determined at various concentrations of inhibitor at a fixed concentration of substrate. As substrates for ALDH1A1, ALDH1A3, and ALDH3A1, 5 μM hexanal, 6 μM hexanal, and 31 μM 4-NBA, respectively, were used. The IC50 values were calculated by nonlinear fitting of the obtained data to a sigmoidal plot using GraFit 5.0 (Erithacus software), with the following 4-parameter equation [drawing 2] , where y is the specific activity, x is the inhibitor concentration, background is the minimum y value, range is the fitted uninhibited value minus the background, and s is the slope factor. Values are expressed as the mean ± SE.

[2] = target: T1, Human ALDH1A1; test: Inhibition screening, single point at 10 μM, ALDH1A1; type: biochemical; conditions: 10 μM compound; 5 μM hexanal (Figure S1)
Protocol: as §1
All compounds tested were dissolved in DMSO and assayed at a final concentration of 1% (v/v) DMSO. […] For the initial screening, the enzymatic activity was measured in 96-well plates (final volume of 200 μL) in a Victor 3 Multilabel Plate Reader (Perkin Elmer), by monitoring the fluorescence of the NAD(P)H produced during the reaction (excitation at 340 nm and emission at 460 nm). Alternatively, the enzymatic activity was measured in a Varian Cary 400 UV–vis spectrophotometer, by monitoring the increase in the absorbance of NAD(P)H at 340 nm (ε = 6.22 mM^–1·cm^–1) or in a Cary Eclipse Varian fluorimeter, as described above. […] For ALDH1A1, 5 μM hexanal (Sigma) was used. For ALDH1A3, 10 and 250 μM hexanal (Sigma) were used. For ALDH3A1, 4-NBA (Sigma) was used at 31 and 250 μM. All substrates were prepared in the corresponding assay buffer at a concentration of 2 mM and further diluted to reach the final concentrations required per experiment. The concentration of the enzyme was kept from 50- to 100-fold lower than that of the substrate for all enzymatic assays.

[3] = tested on: patient-derived primary prostate tumor epithelial cells; test: Alamar Blue cell viability of primary prostate epithelial cultures; type: cell-based, human; conditions: 72 h; for cell viability of primary prostate epithelial cultures, combination with docetaxel: 50 and 200 μM + 1 nM docetaxel; for cell viability of primary prostate epithelial cultures, single agent: 50 and 200 μM, four cancer samples and one BPH
Protocol: Primary cells cultured at early passage from human prostate tissue biopsies included one BPH sample H415/15–BPH/PSA 0.61 and four PCa samples H568/15 RM–Gl7(3 + 4)/PSA 8.5, H431/14 LM–Gl7(3 + 4)/PSA 14, H488/14 RM–Gl7(3 + 4)/PSA 12.6, and H517/15 RM–Gl7(3 + 4)/PSA 4.4. Primary cells were obtained with ethical consent (REC ref 07/H1304/121) at radical prostatectomy (cancer) and transurethral resection (BPH) and were seeded as previously described[37] in 96-well plates 5000 cells/well in 100 μL of SCM and incubated at 37 °C, 5% CO2 for 24 h. […] Cells were treated with 100 μL of ALDH inhibitors at concentrations of 50 and 200 μM as single treatment. Combination treatments included 100 μL of 50 μM ALDH inhibitor + 1 nM docetaxel and 100 μL of 200 μM ALDH inhibitor + 1 nM docetaxel. Cells were also treated with 100 μL of 1 nM docetaxel only. 1 nM docetaxel was chosen since it was the IC50 when other primary samples were analyzed in our laboratory. Control wells included blank (media only) and untreated cells (DMSO only). Each experiment was performed in triplicate, and cell seeding density was the same in all wells; therefore, changes in treated cells were compared to untreated DMSO control cells. Plates were returned to the incubator for a 72 h incubation before further processing. Alamar Blue solution was added at 10% of total sample volume, and plates were incubated at 37 °C for 1–4 h before absorbance was analyzed in a plate reader.[65] Alamar Blue has an excitation wavelength of 530–560 nm and an emission wavelength of 590 nm. Total % cell viability/cell survival was calculated by dividing the absorbance of the treated sample by the absorbance of control and multiplying it by 100.

Compound	IC50 ([1]; 5 μM hexanal as substrate, mean ± SE) [µM]	fold less effective than DEAB in inhibiting ALDH1A1 ([1]; ratio of IC50 values vs DEAB)	remaining ALDH1A1 activity [2] [%]	cell viability of primary prostate epithelial cultures, combination with docetaxel [3]	cell viability of primary prostate epithelial cultures, single agent [3]
CCCN(CCC)c1ccc(C=O)cc1Br [Compound 14, 3-Bromo-4-(dipropylamino)benzaldehyde]	7.08 ± 0.7	approximately 15 fold	45	more potent than DEAB	more potent than DEAB
CCCN(CCC)c1ccc(C=O)cc1[N+](=O)[O-] [Compound 18, 4-(Dipropylamino)-3-Nitrobenzaldehyde]	–	–	–	more potent than DEAB	more potent than DEAB
